Laboratory results: ChEMBL document CHEMBL1144253, “Pyrimidine containing RSV fusion inhibitors” (Bioorg Med Chem Lett, 2005)
pIC50: −log10 of the molar value.

Tests used:
Format in all cases: functional, cell-based
HFF [1] = assay: Inhibitory concentration against human cytomegalovirus strain Ad169 in human foreskin fibroblasts
Vero = assay: Inhibitory concentration against herpes simplex 1 strain Patton in vero cells; conditions: Chlorocebus sabaeus
HFF [2] = assay: Inhibitory concentration against human respiratory syncytial virus strain A2 in human foreskin fibroblasts

| Structure (SMILES) | pIC50 (HFF [1]) | pIC50 (Vero) | pIC50 (HFF [2]) |
| --- | --- | --- | --- |
| NC(=O)CN(CC(N)=O)S(=O)(=O)c1cccc(Nc2nc(Cl)cc(Nc3ccc(-c4ccc(Nc5cc(Cl)nc(Cl)n5)cc4S(=O)(=O)O)c(S(=O)(=O)O)c3)n2)c1 | 4.60 | 4.33 | 4.78 |
| NC(=O)CCCN(CCCC(N)=O)S(=O)(=O)c1cccc(Nc2nc(Nc3cccc(S(=O)(=O)N(CCCC(N)=O)CCCC(N)=O)c3)nc(Nc3ccc(-c4ccc(Nc5nc(Nc6cccc(S(=O)(=O)N(CCCC(N)=O)CCCC(N)=O)c6)nc(Nc6cccc(S(=O)(=O)N(CCCC(N)=O)CCCC(N)=O)c6)n5)cc4S(=O)(=O)O)c(S(=O)(=O)O)c3)n2)c1 |  |  | 7.00 |
| O=S(=O)(O)c1cc(Nc2nc(Nc3cccc(S(=O)(=O)N(CCO)CCO)c3)nc(Nc3cccc(S(=O)(=O)N(CCO)CCO)c3)n2)ccc1-c1ccc(Nc2nc(Nc3cccc(S(=O)(=O)N(CCO)CCO)c3)nc(Nc3cccc(S(=O)(=O)N(CCO)CCO)c3)n2)cc1S(=O)(=O)O | 5.64 | 4.83 | 7.05 |
| NC(=O)CN(CC(N)=O)S(=O)(=O)c1cccc(Nc2cc(Nc3ccc(-c4ccc(Nc5cc(Nc6cccc(S(=O)(=O)N(CC(N)=O)CC(N)=O)c6)nc(Nc6cccc(S(=O)(=O)N(CC(N)=O)CC(N)=O)c6)n5)cc4S(=O)(=O)O)c(S(=O)(=O)O)c3)nc(Cl)n2)c1 | 5.15 | 4.72 | 5.74 |
| NC(=O)CCN(CCC(N)=O)S(=O)(=O)c1cccc(Nc2nc(Cl)nc(Nc3ccc(-c4ccc(Nc5nc(Nc6cccc(S(=O)(=O)N(CCC(N)=O)CCC(N)=O)c6)nc(Nc6cccc(S(=O)(=O)N(CCC(N)=O)CCC(N)=O)c6)n5)cc4S(=O)(=O)O)c(S(=O)(=O)O)c3)n2)c1 | 4.77 |  | 6.60 |
| NC(=O)CCN(CCC(N)=O)S(=O)(=O)c1cccc(Nc2nc(Nc3cccc(S(=O)(=O)N(CCC(N)=O)CCC(N)=O)c3)nc(Nc3ccc(-c4ccc(Nc5nc(Nc6cccc(S(=O)(=O)N(CCC(N)=O)CCC(N)=O)c6)nc(Nc6cccc(S(=O)(=O)N(CCC(N)=O)CCC(N)=O)c6)n5)cc4S(=O)(=O)O)c(S(=O)(=O)O)c3)n2)c1 |  |  | 7.10 |
| NC(=O)CCN(CCC(N)=O)S(=O)(=O)c1cccc(Nc2nc(Nc3cccc(S(=O)(=O)N(CCC(N)=O)CCC(N)=O)c3)nc(Nc3ccc(/C=C/c4ccc(Nc5nc(Nc6cccc(S(=O)(=O)N(CCC(N)=O)CCC(N)=O)c6)nc(Nc6cccc(S(=O)(=O)N(CCC(N)=O)CCC(N)=O)c6)n5)cc4S(=O)(=O)O)c(S(=O)(=O)O)c3)n2)c1 |  |  | 6.82 |
| NC(=O)CN(CC(N)=O)S(=O)(=O)c1cccc(Nc2cc(Nc3ccc(-c4ccc(Nc5nc(Nc6cccc(S(=O)(=O)N(CC(N)=O)CC(N)=O)c6)ncc5Cl)cc4S(=O)(=O)O)c(S(=O)(=O)O)c3)nc(Cl)n2)c1 | 4.86 | 4.60 | 5.46 |
| O=S(=O)(O)c1cc(Nc2cc(Nc3cccc(S(=O)(=O)N(CCO)CCO)c3)nc(Nc3cccc(S(=O)(=O)N(CCO)CCO)c3)n2)ccc1-c1ccc(Nc2cc(Nc3cccc(S(=O)(=O)N(CCO)CCO)c3)nc(Nc3cccc(S(=O)(=O)N(CCO)CCO)c3)n2)cc1S(=O)(=O)O | 5.36 | 4.77 | 6.09 |
| NC(=O)CN(CC(N)=O)S(=O)(=O)c1cccc(Nc2nc(Nc3cccc(S(=O)(=O)N(CC(N)=O)CC(N)=O)c3)nc(Nc3ccc(-c4ccc(Nc5nc(Nc6cccc(S(=O)(=O)N(CC(N)=O)CC(N)=O)c6)nc(Nc6cccc(S(=O)(=O)N(CC(N)=O)CC(N)=O)c6)n5)cc4S(=O)(=O)O)c(S(=O)(=O)O)c3)n2)c1 [RF-1461] | 5.59 | 5.11 | 7.30 |
